Source: ChEMBL document CHEMBL1124314, “Development of phosphonate derivatives of gadolinium chelates for NMR imaging of calcified soft tissues” (J Med Chem, 1989)

What was measured:
Rattus norvegicus [1] = species: Rattus norvegicus; assay: Uptake of [GD] in bone 1 h post injection with 0.01 of the compound; format: functional, Bone element
Rattus norvegicus [2] = species: Rattus norvegicus; assay: Uptake of [GD] in bone 1 hr post injection with 0.05 of the compound; format: functional, Bone element
Rattus norvegicus [3] = species: Rattus norvegicus; assay: Uptake of [GD] in bone 1 hr post injection with 0.10 of the compound; format: functional, Bone element
[4] = Uptake of [GD] in bone 1 hr post injection with 0.01 to that of muscle; format: functional, Muscle tissue
[5] = Ratio of uptake of [GD] in bone 1 hr post injection with 0.01 to that of blood; format: functional
[6] = Ratio of uptake of [GD] in bone 1 hr post injection with 0.05 to that of blood; format: functional
[7] = Ratio of uptake of [GD] in bone 1 hr post injection with 0.05 to that of muscle; format: functional
[8] = Ratio of uptake of [GD] in bone 1 hr post injection with 0.10 to that of blood; format: functional
[9] = Ratio of uptake of [GD] in bone 1 hr post injection with 0.10 to that of muscle; format: functional
Rattus norvegicus [10] = species: Rattus norvegicus; assay: Biodistribution in rat bone in the presence of NCA Gd/0.01 M lip; format: ADME, organism-based, Bone element; details: in vivo
Rattus norvegicus [11] = species: Rattus norvegicus; assay: Biodistribution in rat heart in the presence of 0.05 M Gd/0.15 M lig; format: ADME, organism-based; details: in vivo
Rattus norvegicus [12] = species: Rattus norvegicus; assay: Biodistribution in rat heart in the presence of NCA Gd/0.01 M lip; format: ADME, organism-based; details: in vivo
Rattus norvegicus [13] = species: Rattus norvegicus; assay: Biodistribution in rat kidney in the presence of 0.05 M Gd/0.15 M lig; format: ADME, organism-based; details: in vivo
Rattus norvegicus [14] = species: Rattus norvegicus; assay: Biodistribution in rat kidney in the presence of NCA Gd/0.01 M lip; format: ADME, organism-based; details: in vivo
Rattus norvegicus [15] = species: Rattus norvegicus; assay: Biodistribution in rat liver in the presence of NCA Gd/0.01 M lip; format: ADME, organism-based; details: in vivo
Rattus norvegicus [16] = species: Rattus norvegicus; assay: Biodistribution in rat muscle in the presence of 0.05 M Gd/0.15 M lig; format: ADME, organism-based, Muscle tissue; details: in vivo
Rattus norvegicus [17] = species: Rattus norvegicus; assay: Biodistribution in rat muscle in the presence of NCA Gd/0.01 M lip; format: ADME, organism-based, Muscle tissue; details: in vivo
Rattus norvegicus [18] = assay: Biodistribution in rat s. intestine in the presence of 50 Gd/kg at 2 hr; format: ADME, organism-based; details: in vivo
Rattus norvegicus [19] = assay: Biodistribution in rat s. intestine in the presence of 50 Gd/kg at 6 hr; format: ADME, organism-based; details: in vivo
Rattus norvegicus [20] = species: Rattus norvegicus; assay: Biodistribution in rat s. intestine in the presence of NCA (No carrier added); format: ADME, organism-based; details: in vivo
Rattus norvegicus [21] = assay: Biodistribution in rat spleen in the presence of 50 Gd/kg at 15 min; format: ADME, organism-based; details: in vivo, 0.25 h
Rattus norvegicus [22] = assay: Biodistribution in rat spleen in the presence of 50 Gd/kg at 2 hr; format: ADME, organism-based; details: in vivo
Rattus norvegicus [23] = species: Rattus norvegicus; assay: Biodistribution in rat l. intestine in the presence of 0.01 M carrier at 1 hr; format: ADME, organism-based; details: in vivo
Rattus norvegicus [24] = assay: Biodistribution in rat l. intestine in the presence of 50 Gd/kg at 2 hr; format: ADME, organism-based; details: in vivo
Rattus norvegicus [25] = assay: Biodistribution in rat l. intestine in the presence of 50 Gd/kg at 6 hr; format: ADME, organism-based; details: in vivo
Rattus norvegicus [26] = assay: Biodistribution in rat liver by in the presence 50 Gd/kg at 15 min; format: ADME, organism-based; details: in vivo, 0.25 h
Rattus norvegicus [27] = species: Rattus norvegicus; assay: Biodistribution in rat liver by in the presence of 0.05 M Gd/0.15 M lig; format: ADME, organism-based; details: in vivo
Rattus norvegicus [28] = assay: Biodistribution in rat liver in the presence of 50 Gd/kg at 2 hr; format: ADME, organism-based; details: in vivo
Rattus norvegicus [29] = assay: Biodistribution in rat liver in the presence of 50 Gd/kg at 6 hr; format: ADME, organism-based; details: in vivo
Rattus norvegicus [30] = assay: Biodistribution in rat spleen in the presence of 50 Gd/kg at 6 hr; format: ADME, organism-based; details: in vivo
Rattus norvegicus [31] = species: Rattus norvegicus; assay: Biodistribution in rat spleen in the presence of NCA Gd/0.01 M lip; format: ADME, organism-based; details: in vivo
Rattus norvegicus [32] = assay: Biodistribution in rat stomach in the presence of 50 Gd/kg at 15 min; format: ADME, organism-based; details: in vivo, 0.25 h
Rattus norvegicus [33] = assay: Biodistribution in rat stomach in the presence of 50 Gd/kg at 2 hr; format: ADME, organism-based; details: in vivo
Rattus norvegicus [34] = species: Rattus norvegicus; assay: Biodistribution in rat blood in the presence of NCA Gd/0.01 M lip; format: ADME, organism-based; details: in vivo
Rattus norvegicus [35] = species: Rattus norvegicus; assay: Biodistribution in rat blood in the presence of 0.05 M Gd/0.15 M lig; format: ADME, organism-based; details: in vivo
Rattus norvegicus [36] = assay: Biodistribution in rat blood in the presence of 50 Gd/kg at 15 min; format: ADME, organism-based; details: in vivo, 0.25 h
Rattus norvegicus [37] = assay: Biodistribution in rat blood in the presence of 50 Gd/kg at 2 hr; format: ADME, organism-based; details: in vivo
Rattus norvegicus [38] = assay: Biodistribution in rat blood in the presence of 50 Gd/kg at 6 hr; format: ADME, organism-based; details: in vivo
Rattus norvegicus [39] = species: Rattus norvegicus; assay: Biodistribution in rat bone in the presence of 0.05 M Gd/0.15 M lig; format: ADME, organism-based, Bone element; details: in vivo
Rattus norvegicus [40] = species: Rattus norvegicus; assay: Biodistribution in rat bone in the presence of NCAGd/0.01 M lig; format: ADME, organism-based, Bone element; details: in vivo
Rattus norvegicus [41] = species: Rattus norvegicus; assay: Biodistribution in rat heart in the presence of NCAGd/0.01 M lig; format: ADME, organism-based; details: in vivo
Rattus norvegicus [42] = species: Rattus norvegicus; assay: Biodistribution in rat muscle in the presence of NCAGd/0.01 M lig; format: ADME, organism-based, Muscle tissue; details: in vivo
Rattus norvegicus [43] = species: Rattus norvegicus; assay: Biodistribution in rat liver by in the presence of NCAGd/0.01 M lig; format: ADME, organism-based; details: in vivo
Rattus norvegicus [44] = species: Rattus norvegicus; assay: Biodistribution in rat blood in the presence of NCAGd/0.01 M lig; format: ADME, organism-based; details: in vivo
Rattus norvegicus [45] = species: Rattus norvegicus; assay: Uptake of [GD] in bone 1 hr post injection with 0.0005 of the compound; format: functional, Bone element
Rattus norvegicus [46] = species: Rattus norvegicus; assay: Uptake of [GD] in bone 1 hr post injection with 0.002 of the compound; format: functional, Bone element
Rattus norvegicus [47] = species: Rattus norvegicus; assay: Uptake of [GD] in bone 1 hr post injection with 0.005 of the compound; format: functional, Bone element
Rattus norvegicus [48] = species: Rattus norvegicus; assay: Uptake of [GD] in bone 1 hr post injection with NCA GD dose; format: functional, Bone element
[49] = Ratio of uptake of [GD] in bone 1 hr post injection with 0.0005 to that of blood; format: functional
[50] = Ratio of uptake of [GD] in bone 1 hr post injection with 0.0005 to that of muscle; format: functional
[51] = Ratio of uptake of [GD] in bone 1 hr post injection with 0.002 to that of blood; format: functional
[52] = Ratio of uptake of [GD] in bone 1 hr post injection with 0.002 to that of muscle; format: functional
[53] = Ratio of uptake of [GD] in bone 1 hr post injection with 0.005 to that of blood; format: functional
[54] = Ratio of uptake of [GD] in bone 1 hr post injection with 0.005 to that of muscle; format: functional
[55] = Ratio of uptake of [GD] in bone 1 hr post injection with NCA GD dose to that of blood; format: functional
[56] = Ration of Uptake of [GD] in bone 1 hr post injection with NCA GD dose to that of muscle; format: functional
Rattus norvegicus [57] = species: Rattus norvegicus; assay: Biodistribution in rat spleen in the presence of NCAGd/0.01 M lig; format: ADME, organism-based; details: in vivo
Rattus norvegicus [58] = species: Rattus norvegicus; assay: Biodistribution in rat kidney in the presence of NCAGd/0.01 M lig; format: ADME, organism-based; details: in vivo

## O=C(O)CN(CCN(CC(=O)O)CC(=O)O)CCN(CC(=O)O)CC(=O)NCCCP(=O)(O)OP(=O)(O)O
Rattus norvegicus [1]
  ID: 22.9%
Rattus norvegicus [2]
  ID: 17.6%
Rattus norvegicus [3]
  ID: 13.7%
[4]
  Ratio: 5.39
[5]
  Ratio: 2.12
[6]
  Ratio: 6.42
[7]
  Ratio: 3.38
[8]
  Ratio: 8.56
[9]
  Ratio: 2.76

## CC(C(=O)O)C(C(=O)O)(P(=O)(O)O)P(=O)(O)O (stereo not drawn)
Rattus norvegicus [10]
  ID/organ: 6.91%
Rattus norvegicus [11]
  ID/organ: 0.059%
Rattus norvegicus [12]
  ID/organ: 0.099%
Rattus norvegicus [13]
  ID/organ: 0.447%
Rattus norvegicus [14]
  ID/organ: 0.339%
Rattus norvegicus [15]
  ID/organ: 67.3%
Rattus norvegicus [16]
  ID/organ: 0.124%
Rattus norvegicus [17]
  ID/organ: 2.38%
Rattus norvegicus [18]
  ID/organ: 1.03%
Rattus norvegicus [19]
  ID/organ: 0.675%
Rattus norvegicus [20]
  ID/organ: 0.86%
Rattus norvegicus [21]
  ID/organ: 11.2%
Rattus norvegicus [22]
  ID/organ: 12.5%
Rattus norvegicus [23]
  ID/organ: 0.138%
Rattus norvegicus [24]
  ID/organ: 0.334%
Rattus norvegicus [25]
  ID/organ: 0.293%
Rattus norvegicus [26]
  ID/organ: 34.2%
Rattus norvegicus [27]
  ID/organ: 73%
Rattus norvegicus [28]
  ID/organ: 74.3%
Rattus norvegicus [29]
  ID/organ: 80.2%
Rattus norvegicus [30]
  ID/organ: 8.12%
Rattus norvegicus [31]
  ID/organ: 2.67%
Rattus norvegicus [32]
  ID/organ: 0.221%
Rattus norvegicus [33]
  ID/organ: 0.178%
Rattus norvegicus [34]
  ID/organ: 2.62%
Rattus norvegicus [35]
  ID/organ: 0.319%
Rattus norvegicus [36]
  ID/organ: 23.4%
Rattus norvegicus [37]
  ID/organ: 0.26%
Rattus norvegicus [38]
  ID/organ: 0.217%
Rattus norvegicus [39]
  ID/organ: 1.18%

## CC(O)C(C)NCCNC(C)C(C)O (stereo not drawn)
Rattus norvegicus [40]
  ID/organ: 51.4%
Rattus norvegicus [41]
  ID/organ: 0.295%
Rattus norvegicus [42]
  ID/organ: 5.85%
Rattus norvegicus [43]
  ID/organ: 28.5%
Rattus norvegicus [44]
  ID/organ: 3.12%
Rattus norvegicus [45]
  ID: 6.54%
Rattus norvegicus [46]
  ID: 6.9%
Rattus norvegicus [47]
  ID: 5.07%
Rattus norvegicus [48]
  ID: 51.4%
[49]
  Ratio: 0.234%
[50]
  Ratio: 2.19%
[51]
  Ratio: 0.206%
[52]
  Ratio: 1.81%
[53]
  Ratio: 0.167%
[54]
  Ratio: 1.67%
[55]
  Ratio: 16.5%
[56]
  Ratio: 8.81%
Rattus norvegicus [57]
  ID/organ: 0.44%
Rattus norvegicus [58]
  ID/organ: 2.87%
